Here are results for nine molecules from ChEMBL document CHEMBL3758177, “Synthesis and biological evaluation of novel phosphoramidate derivatives of coumarin as chitin synthase inhibitors and antifungal agents” (Eur J Med Chem, 2016).

A word on the MIC: it is the smallest concentration in the dilution series that meets the test's criterion for growth inhibition. The term inhibition denotes the share of the control response that was lost under treatment. Read a low inhibition as a weak effect. As usually defined, the IC50 is the concentration that gives 50% inhibition. Usually Ki stands for the dissociation constant of the complex between target and ligand, obtained from inhibition or displacement. Higher therefore signals lower affinity.

The test system of experiment [1] is Fusarium oxysporum. Kind of experiment: Antifungal activity against Fusarium oxysporum ITCC 6246 after 48 hrs by micro-titer plate method. The format is functional. Particulars: ITCC 6246, 48 h.
Experiment [2] concerns Candida albicans. As to the kind of experiment: Antifungal activity against Candida albicans CMCC 76615 after 24 hrs by two-fold serial dilution method. The format is functional. The note with it: CMCC 76615, 24 h.
Experiment [3] relates to Fusarium oxysporum. As to the kind of experiment: Antifungal activity against Fusarium oxysporum ITCC 6246 after 48 hrs by microdilution method. Particulars: ITCC 6246, 48 h. Format: functional. (In general: Broth dilution looks for growth in wells or tubes with falling amounts of substance.)
A further experiment concerns Cryptococcus neoformans. Kind of experiment: Antifungal activity against Cryptococcus neoformans ATCC 32719 after 24 hrs by two-fold serial dilution method. Format: functional. The note with it: ATCC 32719, 24 h.
The next experiment has as its system Aspergillus fumigatus. As to the kind of experiment: Antifungal activity against Aspergillus fumigatus GIMCC 3.19 after 24 hrs by two-fold serial dilution method. The format is functional. Particulars: GIMCC 3.19, 24 h.
Experiment [4] concerns Candida albicans. Kind of experiment: Antifungal activity against Candida albicans CMCC 76615 after 48 hrs by microdilution method. The note with it: CMCC 76615, 48 h. The format is functional.
The next experiment has as its system Aspergillus flavus. As to the kind of experiment: Antifungal activity against Aspergillus flavus ATCC 16870 after 24 hrs by two-fold serial dilution method. The format is functional. The note with it: ATCC 16870, 24 h.
In experiment [5] the test system is Candida albicans. As to the kind of experiment: Antifungal activity against Candida albicans CMCC 76615 after seven days by disc diffusion method. The format is functional. For orientation: In agar diffusion tests the substance spreads into inoculated agar from a disc or well.
In experiment [6] the test system is Staphylococcus aureus. Kind of experiment: Antibacterial activity against Staphylococcus aureus ATCC 25923 after 24 hrs by two-fold serial dilution method. Particulars: ATCC 25923, 24 h. Format: functional.
The subject of another experiment is Escherichia coli. As to the kind of experiment: Antibacterial activity against Escherichia coli JM 109 after 24 hrs by two-fold serial dilution method. Format: functional. The note with it: JM 109, 24 h.
In another experiment the test system is Candida tropicalis. As to the kind of experiment: Inhibition of Candida tropicalis ATCC 750 chitin synthase using UDP-GlcNAc as substrate at 300 ug/ml after 60 mins by microplate reader method.
Another experiment has as its system Pseudomonas aeruginosa. Kind of experiment: Antibacterial activity against Pseudomonas aeruginosa ATCC 9027 after 24 hrs by two-fold serial dilution method. The format is functional. Particulars: ATCC 9027, 24 h.
A further experiment concerns Bacillus spizizenii. Kind of experiment: Antibacterial activity against Bacillus subtilis ATCC 6633 after 24 hrs by two-fold serial dilution method. The format is functional. Particulars: ATCC 6633, 24 h.
Experiment [7] has as its system Staphylococcus aureus. Kind of experiment: Antibacterial activity against Methicillin-resistant Staphylococcus aureus N 315 after 24 hrs by two-fold serial dilution method. The format is functional. The note with it: N 315, 24 h.
Experiment [8] is described as follows: Inhibition of Candida tropicalis ATCC 750 chitin synthase using UDP-GlcNAc as substrate after 60 mins by microplate reader method.
For a further experiment, the system named is Proteus vulgaris. As to the kind of experiment: Antibacterial activity against Proteus vulgaris ATCC 8427 after 24 hrs by two-fold serial dilution method. The format is functional. The note with it: ATCC 8427, 24 h.
The nature of experiment [9]: Non-competitive inhibition of Candida tropicalis ATCC 750 chitin synthase using UDP-GlcNAc as substrate by Lineweaver-Burk plot analysis.

In brackets after ≈: the same amount, converted by molar mass.

Turning to `C=C1CC(CC/C(C)=C\COc2ccc3ccc(=O)oc3c2)OC1=O` (stereo unspecified), inhibition of growth against Fusarium oxysporum [1] (MIC) required 19 µg/mL (≈ 55.8 µM).

For the molecule `OC(Cn1cncn1)(Cn1cncn1)c1ccc(F)cc1F` [FLUCONAZOLE], the MIC with Candida albicans [2] worked out at 16 µg/mL (≈ 52.2 µM); against Fusarium oxysporum [3], 8 µg/mL (≈ 26.1 µM); with Cryptococcus neoformans, 8 µg/mL (≈ 26.1 µM); against Aspergillus fumigatus it was 32 µg/mL (≈ 104 µM); against Candida albicans [4] it was 8 µg/mL (≈ 26.1 µM); against Aspergillus flavus, 32 µg/mL (≈ 104 µM).

As to `O=c1oc2ccccc2c(Cl)c1/C=N/c1nncs1`, the “diameter of the inhibition zone (DIZ)” value with Candida albicans [5] turned out to be 15 mm.

`COC(=O)C(C)NP(=O)(OCCN(C)c1cc(=O)oc2ccc(C)cc12)Oc1ccccc1` (stereo unspecified): the MIC was determined as 64 µg/mL (≈ 135 µM) with Candida albicans [2]; 256 µg/mL (≈ 540 µM) in the experiment on Staphylococcus aureus [6]; 16 µg/mL (≈ 33.7 µM) in the experiment with Escherichia coli; 32 µg/mL (≈ 67.4 µM) against Cryptococcus neoformans; 512 µg/mL (≈ 1080 µM) against Pseudomonas aeruginosa; 256 µg/mL (≈ 540 µM) with Bacillus spizizenii. Besides, the MIC against Aspergillus fumigatus was 64 µg/mL (≈ 135 µM); against Staphylococcus aureus [7], 256 µg/mL (≈ 540 µM); against Aspergillus flavus it was 128 µg/mL (≈ 270 µM); against Proteus vulgaris, 512 µg/mL (≈ 1080 µM). Further, the inhibition with Candida tropicalis was determined as 61%. Moreover, in experiment [8], the IC50 worked out at 260 µM.

As for `COC(=O)C(Cc1ccccc1)NP(=O)(OCCN(C)c1cc(=O)oc2ccccc12)Oc1ccccc1` (stereo unspecified), the MIC in the experiment on Candida albicans [2] came out at 64 µg/mL (≈ 119 µM); against Staphylococcus aureus [6], 64 µg/mL (≈ 119 µM); against Escherichia coli, 64 µg/mL (≈ 119 µM); against Cryptococcus neoformans it was 64 µg/mL (≈ 119 µM); in the experiment with Pseudomonas aeruginosa, 64 µg/mL (≈ 119 µM); against Bacillus spizizenii, 128 µg/mL (≈ 239 µM). The MIC in the experiment on Aspergillus fumigatus stood at 128 µg/mL (≈ 239 µM); against Staphylococcus aureus [7], 128 µg/mL (≈ 239 µM); in the experiment with Aspergillus flavus it was 8 µg/mL (≈ 14.9 µM); in the experiment on Proteus vulgaris, 16 µg/mL (≈ 29.8 µM). For the same molecule, the inhibition in the experiment with Candida tropicalis came out at 59%. Half-maximal inhibition in experiment [8] (IC50) was put at 250 µM.

For the molecule `COC(=O)C(Cc1ccccc1)NP(=O)(OCCN(C)c1cc(=O)oc2ccc(C(C)(C)C)cc12)Oc1ccccc1` (stereo unspecified), the MIC against Candida albicans [2] is 8 µg/mL (≈ 13.5 µM); against Staphylococcus aureus [6], 8 µg/mL (≈ 13.5 µM); against Escherichia coli, 16 µg/mL (≈ 27 µM); against Cryptococcus neoformans, 8 µg/mL (≈ 13.5 µM); in the experiment on Pseudomonas aeruginosa, 16 µg/mL (≈ 27 µM); in the experiment on Bacillus spizizenii it was 32 µg/mL (≈ 54 µM). The MIC was determined as 32 µg/mL (≈ 54 µM) against Aspergillus fumigatus, 128 µg/mL (≈ 216 µM) in the experiment on Staphylococcus aureus [7], 2 µg/mL (≈ 3.37 µM) in the experiment on Aspergillus flavus and 16 µg/mL (≈ 27 µM) in the experiment on Proteus vulgaris. In the experiment with Candida tropicalis, the inhibition stood at 90%. This molecule also registered a half-inhibitory concentration (IC50) in experiment [8] of 80 µM. In addition, in experiment [9], the Ki was determined as 96 µM.

For the molecule `Cc1ccc(NS(=O)(=O)c2cc3c(CN=[N+]=[N-])cc(=O)oc3cc2C)cc1`, the MIC with Fusarium oxysporum [3] and against Candida albicans [4] was 1 µg/mL (≈ 2.6 µM) throughout.

For `COC(=O)CNP(=O)(OCCN(C)c1cc(=O)oc2cc(C)ccc12)Oc1ccccc1` (stereo unspecified), the MIC against Candida albicans [2] is 32 µg/mL (≈ 69.5 µM); in the experiment with Staphylococcus aureus [6], 256 µg/mL (≈ 556 µM); in the experiment with Escherichia coli, 128 µg/mL (≈ 278 µM); in the experiment with Cryptococcus neoformans it was 16 µg/mL (≈ 34.8 µM); against Pseudomonas aeruginosa it was 512 µg/mL (≈ 1110 µM); in the experiment with Bacillus spizizenii, 512 µg/mL (≈ 1110 µM). Besides, the minimal inhibitory concentration (MIC) in the experiment on Aspergillus fumigatus stood at 32 µg/mL (≈ 69.5 µM); in the experiment on Staphylococcus aureus [7], 256 µg/mL (≈ 556 µM); against Aspergillus flavus it was 64 µg/mL (≈ 139 µM); with Proteus vulgaris, 512 µg/mL (≈ 1110 µM). In the experiment with Candida tropicalis, this molecule returned an inhibition of 59%. The same molecule yielded an IC50 in experiment [8] of 320 µM.

Turning to `COC(=O)C(C)NP(=O)(OCCN(C)c1cc(=O)oc2ccccc12)Oc1ccccc1` (stereo unspecified), the minimal inhibitory concentration (MIC) in the experiment with Candida albicans [2] turned out to be 32 µg/mL (≈ 69.5 µM); in the experiment with Staphylococcus aureus [6], 512 µg/mL (≈ 1110 µM); against Escherichia coli, 512 µg/mL (≈ 1110 µM); in the experiment on Cryptococcus neoformans, 8 µg/mL (≈ 17.4 µM); in the experiment with Pseudomonas aeruginosa it was 512 µg/mL (≈ 1110 µM); in the experiment with Bacillus spizizenii it was 512 µg/mL (≈ 1110 µM). The minimal inhibitory concentration (MIC) against Aspergillus fumigatus is 32 µg/mL (≈ 69.5 µM); in the experiment on Staphylococcus aureus [7], 512 µg/mL (≈ 1110 µM); against Aspergillus flavus it was 64 µg/mL (≈ 139 µM); in the experiment with Proteus vulgaris it was 512 µg/mL (≈ 1110 µM). For the same molecule, in the experiment on Candida tropicalis, the inhibition is 77%. The molecule also came in with a 50% inhibitory concentration (IC50) in [8] of 150 µM.
